# Results reported in ChEMBL document CHEMBL1131977, “Synthesis and in vitro activity of new oxazolidinone antibacterial agents having substituted isoxazoles” (1999).
# How the values were obtained:
# Assay type in all cases: functional
# [1] = test system: Staphylococcus epidermidis; assay: In vitro antibacterial activity against Staphylococcus epidermis (S.e.2) C2235.
# [2] = test system: Streptococcus pyogenes; assay: In vitro antibacterial activity against Streptococcus pyogenes C6003 (S.p.2).
# [3] = test system: Streptococcus pyogenes; assay: In vitro antibacterial activity against Streptococcus pyogenes ATCC 8668 (S.p.1).
# [4] = test system: Enterococcus faecalis; assay: In vitro antibacterial activity against Enterococcus faecalis C6291 (E.f.1).
# [5] = test system: Staphylococcus aureus; assay: In vitro antibacterial activity against methicillin-susceptible Staphylococcus aureus (MSSA) C2214.
# [6] = test system: Staphylococcus aureus; assay: In vitro antibacterial activity against ciprofloxacin-resistant Staphylococcus aureus (CRSA) C6043.
# [7] = test system: Enterococcus faecium; assay: In vitro antibacterial activity against Enterococcus faecium C6301 (E.f.2).
# [8] = test system: Staphylococcus epidermidis; assay: In vitro antibacterial activity against Staphylococcus epidermis (S.e.1) […].
# [9] = test system: Enterococcus faecium; assay: In vitro antibacterial activity against vancomycin-resistant Enterococcus faecium C6487 (VRE).
# [10] = test system: Staphylococcus aureus; assay: In vitro antibacterial activity against methicillin-resistant Staphylococcus aureus (MRSA) C6068.
# [11] = test system: Staphylococcus aureus; assay: In vitro antibacterial activity against Staphylococcus aureus (S. a.) ATCC 29213.
Structure (SMILES),MIC [1] [µg/mL],MIC [2] [µg/mL],MIC [3] [µg/mL],MIC [4] [µg/mL],MIC [5] [µg/mL],MIC [6] [µg/mL],MIC [7] [µg/mL],MIC [8] [µg/mL],MIC [9] [µg/mL],MIC [10] [µg/mL],MIC [11] [µg/mL]
CC(=O)NC[C@H]1CN(c2ccc(N3CCN(C(=O)c4nccs4)CC3)c(F)c2)C(=O)O1,2,1,1,4,4,4,4,1,4,2,4
CC(=O)NC[C@H]1CN(c2ccc(N3CCN(C(=O)c4cc(COC(=O)N(C)C)no4)CC3)c(F)c2)C(=O)O1,2,0.5,0.5,2,4,4,2,1,2,2,4
CC(=O)NC[C@H]1CN(c2ccc(N3CCN(C(=O)c4cc(C(=O)N(C)C)no4)CC3)c(F)c2)C(=O)O1,2,1,1,4,8,8,4,2,4,2,8
CC(=O)NC[C@H]1CN(c2ccc(N3CCN(C(=O)c4cc(C(=O)O)no4)CC3)c(F)c2)C(=O)O1,> 32,16,16,> 32,> 32,–,> 32,> 32,–,–,> 32
CC(=O)NC[C@H]1CN(c2ccc(N3CCN(C(=O)CO)CC3)c(F)c2)C(=O)O1 [EPEREZOLID],1,0.5,0.25,2,2,2,1,0.5,1,1,2
CC(=O)NC[C@H]1CN(c2ccc(N3CCN(C(=O)c4cc(-c5csnn5)no4)CC3)c(F)c2)C(=O)O1,1,0.5,0.5,1,2,2,1,0.5,1,1,2
CC(=O)NC[C@H]1CN(c2ccc(N3CCN(C(=O)c4cc(C(F)(F)F)no4)CC3)c(F)c2)C(=O)O1,2,1,1,4,4,4,4,2,4,2,4
CC(=O)NC[C@H]1CN(c2ccc(N3CCN(Cc4cc(-c5ccc(C)cc5)no4)CC3)c(F)c2)C(=O)O1,8,4,4,16,32,32,8,4,8,8,32
CC(=O)NC[C@H]1CN(c2ccc(N3CCN(Cc4cc(C)no4)CC3)c(F)c2)C(=O)O1,16,16,16,16,16,16,16,16,16,16,16
CC(=O)NC[C@H]1CN(c2ccc(N3CCN(Cc4cc(-c5cccs5)no4)CC3)c(F)c2)C(=O)O1,1,1,1,2,4,2,2,4,22,4,4
COc1cccc(-c2cc(CN3CCN(c4ccc(N5C[C@H](CNC(C)=O)OC5=O)cc4F)CC3)on2)c1,4,1,4,8,4,2,4,4,1,4,4
CC(=O)NC[C@H]1CN(c2ccc(N3CCN(Cc4cc(/C=C/c5ccccc5)no4)CC3)c(F)c2)C(=O)O1,16,2,2,16,> 32,–,8,2,8,32,> 32
CC(=O)NC[C@H]1CN(c2ccc(N3CCN(C(=O)c4ccno4)CC3)c(F)c2)C(=O)O1,1,0.5,0.5,2,2,2,1,1,22,1,2
